{
  "source": "patent US20230035491A1",
  "about": "“METHODS, KITS AND COMPOSITIONS FOR REDUCING CARDIOTOXICITY ASSOCIATED WITH CANCER THERAPIES” (Baruch S. Blumberg Institute, priority 2019, published 2023)",
  "key": {"[1]": {"tested_on": "Isolated canine cardiac myocytes", "assay": "DOX-induced apoptosis of isolated canine cardiac myocytes", "type": "cell-based", "conditions": "24 hours"}, "[2]": {"tested_on": "breast cancer cell lines (BCa)", "assay": "CellTiter-Glo luminescent cell viability assay, breast cancer cell lines", "type": "cell-based", "conditions": "5 μM Dox plus 50 μM compound vs Dox alone"}, "iPSC-CM": {"tested_on": "iPSC-CM", "assay": "CellTiter-Glo luminescent cell viability assay, iPSC-derived cardiomyocytes", "type": "cell-based", "conditions": "5 μM Dox plus 50 μM compound vs Dox alone"}, "[3]": {"tested_on": "breast cancer cell line Py8119", "assay": "Py8119 cell proliferation by cell number using methylene blue", "type": "cell-based", "conditions": "Ranolazine 0.156 um to 20 um, alone or with 5 uM Dox", "protocol": "The breast cancer cell line Py8119 was treated with either increasing doses of Ranolazine (0.156 um to 20 um) or with the addition of doxorubicin. (5 uM Dox). Cell proliferation was established by cell number using methylene blue."}, "[4]": {"tested_on": "BCa cells (SUM-159, FC-IBC-02, MDA-MB-231)", "assay": "CCR5 expression in BCa cells grown in doxorubicin, flow cytometry", "type": "cell-based", "conditions": "10-40 nmol/L doxorubicin for up to 80 days vs untreated", "experimental": "BCa cells were grown in vitro under standard conditions for control (“solid bar”) or DOX treatment (“non-solid bar”) for up to 80 days. SUM-159 cells were grown in 10 nmol/L doxorubicin for 1 month, then 20 nmol/L doxorubicin for 1 month, and then 40 nmol/L doxorubicin for 3 weeks, prior to analysis. FC-IBC-02 cells were grown in 40 nmol/L doxorubicin for 1 month prior to analysis. MDA-MB-231 cells were grown in 20 nmol/L doxorubicin for 1 month then 40 nmol/L doxorubicin for 3 weeks prior to analysis. At the conclusion of the 80 days, surviving cells were harvested and pelleted by centrifugation. Cells were suspended in PBS containing normal mouse IgG and rat anti-mouse Fcg III/II receptor antibody to block nonspecific binding. Cells were exposed allophycocyanin (APC)-labeled CCR5 antibody for 1 hour at 4° C. After washing, analysis of CCR5 expression on cell was conducted on FACSCalibur flow cytometer (BD Biosciences). The data was analyzed with FlowJo software (Tree Star, Inc.). […] Data are % cells expressing CCR5 (mean of n=3 determinations)."}, "[5]": {"assay": "Survival of doxorubicin treated mice over 90 days", "type": "in vivo", "text": "Survival was documented over the first 90 days after the beginning of treatment."}, "CCR5, CCL3, CCL5": {"tested_on": "CCR5, CCL3, CCL5", "parameters": "species or system human", "protocol": "FIGS. 4a through 4f show myocardial biopsies from patients with either doxorubicin-induced cardiomyopathy or donor control heart. […] Samples were obtained from the Sydney heart bank. Biopsies were obtained at the time of transplant for the doxorubicin affected hearts. […] Heart biopsies were fixed in paraformaldehyde overnight prior to being embedded in paraffin blocks. Blocks were sectioned at […]. After deparaffinization and rehydration, antigen retrieval was performed in Tris buffer (pH 9) on the resulting sections. After blocking, sections were incubated with an antibody against CCR5, CCL3, or CCL5. Anti-CCR5 antibody binding was visualized using an HRP-conjugated second antibody and NOVA red substrate. Haematoxylin was used for nuclear visualization."}, "miRNAs targeting CCR5": {"tested_on": "miRNAs targeting CCR5", "assay": "miRNA expression profiles of hearts after acute doxorubicin regimen (Illumina miRNA arrays)", "type": "in vivo, rats", "conditions": "acute doxorubicin 1x 20 mg/kg IP, n=6, vs saline", "text": "In silico analysis using the miRdb database (www.mirdb.org) identified a number of miRNAs that could potentially regulate translation of CCR5 in rats (see X-axis for identification of individual miRNAs). […] Data rare represented as fold change to saline treated rats and shown as mean+/−SEM, * p<0.01."}, "[6]": {"tested_on": "CCR5, CCL3/MIP-la, CCL5/RANTES", "conditions": "chronic or acute DOX regimen vs saline; cited from earlier work"}, "cardiac progenitor iPSCs [7]": {"tested_on": "cardiac progenitor iPSCs", "assay": "DOX killing and CCR5 expression in cardiac progenitor iPSCs, propidium iodide / flow cytometry", "type": "cell-based", "protocol": "Some cells were suspended in PBS containing normal mouse IgG and rat anti-mouse Fcg III/II receptor antibody. Cells were exposed allophycocyanin (APC)-labeled CCR5 antibody for 1 hour at 4° C. After washing, analysis of CCR5 expression on cell was conducted on FACSCalibur flow cytometer (BD Biosciences). The data was analyzed with FlowJo software (Tree Star, Inc.). […] As such, CCR5+ cardiac progenitor cells are more prone to DOX induced cell death from than their CCR5− counterparts."}, "[8]": {"assay": "Chronic DOX model, cardiac function by echocardiography", "type": "in vivo", "conditions": "female mice, DOX 8×3 mg/kg over 2 weeks; 6 and 8 weeks after first injections; vs saline", "protocol": "Female mice (n=10) were treated with a chronic regimen of DOX (8×3 mg/kg over 2 weeks) and cardiac function assessed by echocardiography at 6 and 8 weeks after the first injections. Echocardiographic imaging was employed using the Vevo 2100 preclinical high-frequency ultrasound system (Visualsonics, Toronto, Canada). M-mode analysis of the resulting images provided indices of cardiac systolic and diastolic function. For FIG. 5a, the ejection fraction is the percentage of the left ventricular volume expelled with each cardiac contraction. For FIG. 5b, the ESD is the […]. For FIG. 5c, the ESV is the end systolic volume or the volume of the heart at the end of contraction (systole). For FIG. 5d, the PWs is the posterior wall thickness at end of systole or the thickness of the myocardium at maximal ventricular contraction. All data are compared to the saline treated group and represent mean+/−SEM, p<0.01."}, "CCR5": {"tested_on": "CCR5", "assay": "CCR5 immunostaining of myocardium after chronic regimen of DOX", "type": "in vivo, mice", "conditions": "DOX 8×3 mg/kg IP, excised after 8 weeks; vs saline", "experimental": "Mice were treated with a chronic regimen of DOX (8×3 mg/kg, IP, n=12) or saline (n=10), excised after 8 weeks and fixed in paraformaldehyde overnight before being embedded in paraffin blocks. Blocks were sectioned (5 μm) and, after deparaffinization and rehydration, antigen retrieval was performed in Tris buffer (pH 9). After blocking, sections were incubated with an antibody against CCR5. Anti-CCR5 antibody binding was visualized using an HRP-conjugated second antibody and Nova red substitute. Haematoxylin was used for nuclear visualization."}, "[9]": {"tested_on": "CCR5 ligands CCL3, CCL5, CCL4", "conditions": "doxorubicin treated patients (n=7) vs donor controls (n=9); cited from earlier work"}, "[10]": {"assay": "Doxorubicin induced cardiac dysfunction, echocardiography 8 weeks after final dose", "type": "in vivo, mice", "conditions": "doxorubicin 8×3 mg/kg over 2 weeks with maraviroc 16 mg/kg twice daily gavage vs vehicle; n=15 per group", "text": "A representative example of the echocardiogram is shown. […] Indices include Left Ventricular End Systolic Dimension (LVESD) and Volume (LVESV), which are the diameter and volume of the left ventricle at the end of systole respectively, ejection fraction (EF) which is the percentage of the left ventricular volume expelled with each cardiac contraction (%), and fractional shortening (FS) which is the proportion of diastolic dimension lost in systole (%)."}, "MDA-MB-231 BCa cells": {"tested_on": "MDA-MB-231 BCa cells", "conditions": "Veliparib plus maraviroc vs vehicle, 72 hours, n=3", "experimental": "After 24 hours, cells were harvested and pelleted by centrifugation. For cell death, cells were incubated with RNase A and propidium iodide to highlight DNA content and nuclear morphology. Cell death was identified by counting cells with nuclei that were smaller and with less DNA content compared to normal diploid cells. […] (mean+/−SD, n=3). […] MDA-MB-231 BCa cells were plated onto 96-well plates, allowed to adhere overnight, then treated with drug for 72 hours. Cells were incubated with DNA damaging agent (Veliparib) and either vehicle or maraviroc. A measurement of cell number was made at both the time of treatment (time 0) and after drug treatment (time 72) using CTG reagent (Promega, Madison, Wis.) to allow for calculation of percent growth inhibition and the dose required to inhibit growth rate by 50% (GR50). […] Data represents mean+/−SD (n=3)."}, "cardiac progenitor iPSCs [11]": {"tested_on": "cardiac progenitor iPSCs", "assay": "Cell death of cardiac precursor iPSCs with saline or DOX and maraviroc, propidium iodide", "type": "cell-based", "conditions": "1 μM DOX plus maraviroc (0-100 m), 24 hours, n=3", "text": "(mean+/−SD, n=3). […] Data represents mean+/−SD (n=3)."}, "SUM-159 cells": {"tested_on": "SUM-159 cells", "assay": "BCa lung metastasis after intracardiac injection of SUM-159 Luc2-eGFP cells, bioluminescence imaging", "type": "in vivo, NOD/SCID mice", "conditions": "Maraviroc 8 mg/kg every 12 hr oral gavage vs vehicle; n=6", "protocol": "SUM-159 cells expressing Luc2-eGFP were introduced by intracardiac injection into 8-week old female NOD/SCID mice at 2×10^5 cells/mouse). […] Bioluminescence imaging was performed after intraperitoneal (i.p.) injection with 200 μL of D-luciferin at 30 mg/ml."}, "[12]": {"conditions": "anthracycline cardiotoxicity myocardium (n=2) vs normal donor heart (n=2)"}},
  "note": "Structures can show the parent of a compound that is named as a salt.",
  "data": [
    {"molecule": "COc1ccccc1OCC(O)CN1CCN(CC(=O)Nc2c(C)cccc2C)CC1", "note": "(centres unmarked) [Ranolazine dihydrochloride]", "values": [
      {"measurement": "DOX-induced cardiac toxicity (levels of apoptosis)", "setting": "[1]; pretreated with ranolazine dihydrochloride 50 μM, then DOX 2 μM, n=3", "value": "reduces DOX-induced cardiac toxicity"},
      {"measurement": "survival of BCa cells", "setting": "[2]", "value": "reduced survival"},
      {"measurement": "survival of iPSC-CM", "setting": "iPSC-CM", "value": "improved survival"}
    ]},
    {"molecule": "COc1ccccc1OCC(O)CN1CCN(CC(=O)Nc2c(C)cccc2C)CC1", "note": "(centres unmarked) [Ranolazine]", "values": [
      {"measurement": "breast cancer cell killing (cell proliferation)", "setting": "[3]", "value": "enhance breast cancer cell killing in a dose dependent manner"}
    ]},
    {"molecule": "COc1cccc2c1C(=O)c1c(O)c3c(c(O)c1C2=O)C[C@@](O)(C(=O)CO)C[C@@H]3O[C@H]1C[C@H](N)[C@H](O)[C@H](C)O1", "note": "[doxorubicin]", "values": [
      {"measurement": "CCR5 expression (% cells expressing CCR5)", "setting": "[4]", "value": "significantly increased"},
      {"measurement": "survival over first 90 days", "setting": "[5]; doxorubicin 8x 3 mg/kg over 2 weeks with vehicle control", "value": "7/15"},
      {"measurement": "Average ejection fraction (EF)", "setting": "CCR5, CCL3, CCL5", "value": "25-35%"},
      {"measurement": "CCL3 expression in myocardium", "setting": "CCR5, CCL3, CCL5; [12]", "value": "increased"},
      {"measurement": "CCL5 expression in myocardium", "setting": "CCR5, CCL3, CCL5; [12]", "value": "increased"},
      {"measurement": "CCR5 expression in myocardium", "setting": "CCR5, CCL3, CCL5; [12]", "value": "increased"},
      {"measurement": "miRNAs targeting CCR5 with decreased expression in the myocardium", "setting": "miRNAs targeting CCR5", "value": "8/11"},
      {"measurement": "CCL3 mRNA expression in the heart", "setting": "[6]", "value": "increased mRNA expression"},
      {"measurement": "CCL5 mRNA expression in the heart", "setting": "[6]", "value": "increased mRNA expression"},
      {"measurement": "cell death", "setting": "cardiac progenitor iPSCs [7]; DOX 0-10 m, 24 hours, n=5", "value": "promotes cell death in a dose dependent manner"},
      {"measurement": "CCR5 expression", "setting": "cardiac progenitor iPSCs [7]; DOX 24 hours, n=3", "value": "increases CCR5 expression"},
      {"measurement": "cardiac function (ejection fraction, ESD, ESV, PWs)", "setting": "[8]", "value": "induction of stable mild heart failure"},
      {"measurement": "proportion of DOX-induced apoptotic cell death", "setting": "[1]; DOX 10 μM, no pretreatment", "value": 17, "unit": "%"},
      {"measurement": "CCR5 expression in the myocardium", "setting": "CCR5", "value": "increased"},
      {"measurement": "CCL3 mRNA expression in the heart", "setting": "[9]", "value": "increased mRNA expression"},
      {"measurement": "CCL5 mRNA expression in the heart", "setting": "[9]", "value": "increased mRNA expression"}
    ]},
    {"molecule": "maraviroc", "values": [
      {"measurement": "doxorubicin induced cardiac dysfunction (LVESD, LVESV, EF, FS)", "setting": "[10]", "value": "prevents doxorubicin induced cardiac dysfunction"},
      {"measurement": "survival over first 90 days", "setting": "[5]; doxorubicin 8x 3 mg/kg over 2 weeks with maraviroc 16 mg/kg twice daily gavage", "value": "10/15"},
      {"measurement": "enhanced survival over the vehicle in DOX treated mice", "setting": "[5]; doxorubicin with maraviroc vs doxorubicin with vehicle", "value": 2.77, "unit": "fold"},
      {"measurement": "BCa cell killing in combination with veliparib", "setting": "MDA-MB-231 BCa cells", "value": "synergistically promotes BCa cell killing"},
      {"measurement": "DOX induced cell death", "setting": "cardiac progenitor iPSCs [11]", "value": "significantly, and dose dependently, rescues DOX induced cell death"},
      {"measurement": "BCa lung metastasis", "setting": "SUM-159 cells", "value": "reduced"},
      {"measurement": "proportion of DOX-induced apoptotic cell death", "setting": "[1]; pretreated with maraviroc 100 μM, then DOX 10 μM", "value": 3, "unit": "%"},
      {"measurement": "survival of BCa cells", "setting": "[2]", "value": "reduced survival"},
      {"measurement": "survival of iPSC-CM", "setting": "iPSC-CM", "value": "improved survival"}
    ]}
  ]
}
